Assay results reported in patent US9567345B2, “Pharmaceutically active pyrazolo-triazine derivatives” (LEAD DISCOVERY CENTER GMBH, priority 2012, dated 2017).

Key:
Assay type in all cases: biochemical
CDK9/Cyclin T1 = CDK9/Cyclin T1 (Homo sapiens, UniProt P50750); experiment: CDK9 Enzymatic Activity Assay (Lance Kinase Activity Assay, FRET); settings: for IC50: Table 5B, class symbols per IC50 [nM] ranges of b581, read-out: CDK9: Selectivity of CDK7 inhibition over CDK9 inhibition
Description: (§1) This protocol describes how the Lance Kinase Activity Assay was performed to determine IC50 values of compounds of general formula (I) against CDK/Cyclin complexes. The principle behind this enzymatic assay is based upon the phosphorylation of the Ulight-Peptide Substrat. It is detected by using a specific EU-labeled anti-phospho peptide antibody.
(§2) Binding of an inhibitor to the kinase prevents phosphorylation of the Ulight-MBP Substrat, resulting in a loss of FRET.
CDK9 Enzymatic Activity Assay
(§3) The compounds of general formula (I) exemplary summarized in Table 1 were diluted from a 10 mM DMSO stock solution 1:10 in a total volume of 15 μl DMSO. This compound predilution was then serial diluted 1:3 over 8 steps in DMSO and briefly spun down. Each compound solution was now diluted 1:20 in Enzymatic Buffer (HEPES: 50 mM, pH: 7.5; MgCl2: 10 mM; EGTA: 1 mM; DTT: 2 mM; Tween-20: 0.01%), mixed thoroughly and spun down.
(§4) For positive controls, 2 μl of DMSO working solution were mixed with 6 μl CDK9/cyclin T1/substrate working solution and 2 μl ATP working solution. Positive and negative controls were calculated from at least 8 different wells. The 384 well plates were mixed in a Teleshaker plate mixer (Beckman Coulter, Brea, Calif., USA) at 2000 rpm for 40 sec, and incubated for 1 h at room temperature before addition of 10 μl LANCE Detection Buffer (1×; EDTA: […]; Eu-Anti-P-MBP: 4 nM) per well. Plates were mixed in a Teleshaker plate mixer (Beckman Coulter, Brea, Calif., USA) at 2000 rpm for 40 sec, followed by incubation with Detection Buffer for 1 h, and reading. […] IC50 values were determined from the sigmoidal dose response curves with the software Quattro Workflow (Quattro GmbH, Munich, Germany).

CDK7/CycH/Mat1 = CDK7/CycH/Mat1 (Homo sapiens, UniProt P50613); experiment: CDK7 Enzymatic Activity Assay (Lance Kinase Activity Assay, FRET); settings: CDK7/CycH/Mat1, 25 μM ATP final; class ranges; read-out: CDK7: IC50 [nM] for CDK7 inhibition
Sequence of CDK7/CycH/Mat1 (P50613 whole entry): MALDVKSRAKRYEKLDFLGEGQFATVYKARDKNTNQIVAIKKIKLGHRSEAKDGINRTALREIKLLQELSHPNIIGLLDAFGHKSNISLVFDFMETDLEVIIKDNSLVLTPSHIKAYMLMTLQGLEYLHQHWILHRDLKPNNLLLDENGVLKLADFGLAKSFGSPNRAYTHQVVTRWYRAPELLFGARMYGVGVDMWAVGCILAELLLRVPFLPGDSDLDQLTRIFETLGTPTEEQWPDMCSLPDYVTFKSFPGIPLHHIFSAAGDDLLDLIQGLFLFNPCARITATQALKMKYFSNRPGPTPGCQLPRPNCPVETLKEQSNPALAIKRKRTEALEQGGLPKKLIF
Description: as §1, §2
CDK7 Enzymatic Activity Assay
as §3
as §4, with “CDK7/CycH/Mat1/substrate” for “CDK9/cyclin T1/substrate”

CDK2/CycA = target: T1, CDK2/CycA (Homo sapiens, UniProt P24941); experiment: CDK2 Enzymatic Activity Assay (Lance Kinase Activity Assay, FRET); settings: for IC50: Table 5B, class symbols per IC50 [nM] ranges of b581, read-out: CDK2: Selectivity of CDK7 inhibition over CDK2 inhibition
T1 construct: purchased Proqinase
Description: as §1, §2
CDK2 Enzymatic Activity Assay
as §3
as §4, with “CDK2/CycA/substrate” for “CDK9/cyclin T1/substrate”, “(EDTA:” for “(1×; EDTA:”

Sequence of CDK9/Cyclin T1 (P50750 whole entry): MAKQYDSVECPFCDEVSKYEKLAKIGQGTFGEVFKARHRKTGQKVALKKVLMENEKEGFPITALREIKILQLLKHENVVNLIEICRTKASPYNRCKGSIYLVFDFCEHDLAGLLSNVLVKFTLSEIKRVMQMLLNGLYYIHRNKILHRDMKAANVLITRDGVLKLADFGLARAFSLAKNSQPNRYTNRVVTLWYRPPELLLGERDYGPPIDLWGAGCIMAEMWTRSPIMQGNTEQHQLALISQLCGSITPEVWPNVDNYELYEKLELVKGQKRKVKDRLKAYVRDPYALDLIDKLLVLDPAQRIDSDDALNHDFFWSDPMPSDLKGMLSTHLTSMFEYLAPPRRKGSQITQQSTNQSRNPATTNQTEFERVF
Sequence of CDK9/Cyclin T1 (O60563 whole entry partner): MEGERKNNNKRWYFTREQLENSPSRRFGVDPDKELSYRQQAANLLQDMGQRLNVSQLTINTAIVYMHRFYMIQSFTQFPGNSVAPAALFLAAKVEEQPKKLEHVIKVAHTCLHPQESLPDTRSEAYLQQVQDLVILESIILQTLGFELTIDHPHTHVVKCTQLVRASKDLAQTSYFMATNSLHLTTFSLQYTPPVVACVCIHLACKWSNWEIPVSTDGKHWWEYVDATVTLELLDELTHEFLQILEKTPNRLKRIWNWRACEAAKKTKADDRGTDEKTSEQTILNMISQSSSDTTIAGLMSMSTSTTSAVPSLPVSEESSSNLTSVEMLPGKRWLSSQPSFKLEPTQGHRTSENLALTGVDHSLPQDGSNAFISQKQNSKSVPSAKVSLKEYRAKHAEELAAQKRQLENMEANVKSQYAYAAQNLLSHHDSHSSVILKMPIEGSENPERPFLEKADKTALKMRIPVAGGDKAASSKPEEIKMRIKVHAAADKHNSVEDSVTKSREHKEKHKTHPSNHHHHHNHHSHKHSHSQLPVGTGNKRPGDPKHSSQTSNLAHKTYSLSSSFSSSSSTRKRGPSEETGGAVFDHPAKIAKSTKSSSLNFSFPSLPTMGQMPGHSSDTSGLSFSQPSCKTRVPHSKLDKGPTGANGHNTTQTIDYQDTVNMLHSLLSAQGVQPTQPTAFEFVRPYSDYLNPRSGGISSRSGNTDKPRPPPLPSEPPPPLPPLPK

Row | Compound | IC50 (CDK9/Cyclin T1) [nM] | IC50 (CDK7/CycH/Mat1) [nM] | IC50 (CDK2/CycA) [nM] | multiplicity of the CDK9 activity in terms of the CDK7 activity (CDK9/Cyclin T1; selectivity CDK9 vs CDK7, enzymatic IC50 values) | multiplicity of the CDK2 activity in terms of the CDK7 activity (CDK2/CycA; selectivity CDK2 vs CDK7, enzymatic IC50 values)
1 | CC(C)c1cnn2c(NC(C)c3ccccc3-n3cccn3)nc(O[C@@H]3CCCNC3)nc12 (stereo partly drawn) [(VII-06), N-(1-(2-(1H-pyrazol-1-yl)phenyl)ethyl)-8-isopropyl-2-((R)-piperidin-3-yloxy)pyrazolo[1,5-a][1,3,5]triazin-4-amine] | 50 to 500 | < 5 | > 2500 |  | 
2 | COc1ccccc1[C@H](C)Nc1nc(O[C@@H]2CCNC2)nc2c(C(C)C)cnn12 [(VII-11), 8-isopropyl-N-((S)-1-(2-methoxyphenyl)ethyl)-2-((R)-pyrrolidin-3-yloxy)pyrazolo[1,5-a][1,3,5]triazin-4-amine] | 500 to 2500 | 5 to 10 | 500 to 2500 |  | 
3 | CC(C)c1cnn2c(NCc3ccccc3-n3cccn3)nc(N3CCCC34CCNCC4)nc12 [(VIII-22), N-(2-(1H-pyrazol-1-yl)benzyl)-8-isopropyl-2-(1,8-diazaspiro[4.5]decan-1-yl)pyrazolo[1,5-a][1,3,5]triazin-4-amine] | > 2500 | < 5 |  |  | 
4 | CC(C)c1cnn2c(NCc3ccccc3-n3cccn3)nc(N3CCC4(CCNCC4)CC3)nc12 [(VIII-26), N-(2-(1H-pyrazol-1-yl)benzyl)-8-isopropyl-2-(3,9-diazaspiro[5.5]undecan-3-yl)pyrazolo[1,5-a][1,3,5]triazin-4-amine] | > 2500 | 5 to 10 |  |  | 
5 | CC(C)c1cnn2c(NCc3ccccc3-n3cccn3)nc(N3CCC4(CCCNC4)C3)nc12 (stereo not shown) [(VIII-27), N-(2-(1H-pyrazol-1-yl)benzyl)-8-isopropyl-2-(2,7-diazaspiro[4.5]decan-2-yl)pyrazolo[1,5-a][1,3,5]triazin-4-amine] | > 2500 | 5 to 10 |  |  | 
6 | CC(C)c1cnn2c(NCc3ccccc3-n3cccn3)nc(N3CCC34CCNC4)nc12 (stereo not shown) [(VIII-28), N-(2-(1H-pyrazol-1-yl)benzyl)-8-isopropyl-2-(1,6-diazaspiro[3.4]octan-1-yl)pyrazolo[1,5-a][1,3,5]triazin-4-amine] | > 2500 | < 5 |  |  | 
7 | COc1ccccc1[C@H](C)Nc1nc(N[C@@H]2CCCNC2)nc2c(C(C)C)cnn12 [(VIII-31), 8-isopropyl-N4-((S)-1-(2-methoxyphenyl)ethyl)-N2-((R)-piperidin-3-yl)pyrazolo[1,5-a][1,3,5]triazine-2,4-diamine] | > 2500 | 5 to 10 |  |  | 
8 | CC(C)c1cnn2c(NCc3ccccc3-n3cccn3)nc(N3CCC34CCNCC4)nc12 [(VIII-34), N-(2-(1H-pyrazol-1-yl)benzyl)-8-isopropyl-2-(1,7-diazaspiro[3.5]nonan-1-yl)pyrazolo[1,5-a][1,3,5]triazin-4-amine] | > 2500 | < 5 |  |  | 
9 | CC(C)c1cnn2c(NCc3ccccc3S(=O)(=O)N(C)C)nc(N3CCC4(CCCN4)CC3)nc12 [(VIII-35), 2-(((8-isopropyl-2-(1,8-diazaspiro[4.5]decan-8-yl)pyrazolo[1,5-a][1,3,5]triazin-4-yl)amino)methyl)-N,N-dimethylbenzenesulfonamide] | > 2500 | < 5 |  |  | 
10 | CN1CC[C@H](c2c(O)cc(O)c3c(=O)cc(-c4ccccc4Cl)oc23)[C@H](O)C1 [Flavopiridol, reference compound] |  |  |  | even lower than the CDK 7 activity | even lower than the CDK 7 activity

The next lines start with the values.

Row | IC50 (CDK9/Cyclin T1) [nM] | IC50 (CDK7/CycH/Mat1) [nM] | IC50 (CDK2/CycA) [nM] | multiplicity of the CDK9 activity in terms of the CDK7 activity (CDK9/Cyclin T1; selectivity CDK9 vs CDK7, enzymatic IC50 values) | multiplicity of the CDK2 activity in terms of the CDK7 activity (CDK2/CycA; selectivity CDK2 vs CDK7, enzymatic IC50 values) | Compound
11 | 500 to 2500 | 10 to 25 | 500 to 2500 |  |  | CC(C)c1cnn2c(NCc3ccccc3C3CC3)nc(O[C@@H]3CCCNC3)nc12 (stereo in doubt) [(VII-143), N-(2-cyclopropylbenzyl)-8-isopropyl-2-(piperidin-3-yloxy)pyrazolo[1,5-a][1,3,5]triazin-4-amine]
12 | > 2500 | < 5 | 50 to 500 |  |  | CC(C)c1cnn2c(NCc3ccccc3-n3cccn3)nc(OC3CCNCC3)nc12 [(VII-01), N-(2-(1H-pyrazol-1-yl)benzyl)-8-isopropyl-2-(piperidin-4-yloxy) pyrazolo[1,5-a][1,3,5]triazin-4-amine]
13 | 500 to 2500 | < 5 | < 50 |  |  | CC(C)c1cnn2c(NCc3ccccc3-n3cccn3)nc(O[C@@H]3CCNC3)nc12 [(VII-02), (R)-N-(2-(1H-pyrazol-1-yl)benzyl)-8-isopropyl-2-(pyrrolidin-3-yloxy)pyrazolo[1,5-a][1,3,5]triazin-4-amine]
14 | 50 to 500 | < 5 | < 50 |  |  | CC(C)c1cnn2c(NCc3ccccc3-n3cccn3)nc(O[C@@H]3CCCNC3)nc12 [(VII-03), (R)-N-(2-(1H-pyrazol-1-yl)benzyl)-8-isopropyl-2-(piperidin-3-yloxy)pyrazolo[1,5-a][1,3,5]triazin-4-amine]
15 | > 2500 | < 5 | > 2500 |  |  | CC(C)c1cnn2c(NCc3ccccc3-n3cccn3)nc(OC3COC4(CCNCC4)C3)nc12 (stereo not shown) [(VII-05), 2-(1-oxa-8-azaspiro[4.5]decan-3-yloxy)-N-(2-(1H-pyrazol-1-yl)benzyl)-8-isopropylpyrazolo[1,5-a][1,3,5]triazin-4-amine]
16 | 50 to 500 | < 5 | 500 to 2500 |  |  | CC(C)c1cnn2c(NCc3ccccc3-c3ccccc3)nc(O[C@@H]3CCCNC3)nc12 [(VII-07), (R)-N-([1,1′-biphenyl]-2-ylmethyl)-8-isopropyl-2-(piperidin-3-yloxy)pyrazolo[1,5-a][1,3,5]triazin-4-amine]
17 | 500 to 2500 | 5 to 10 | 500 to 2500 |  |  | CC(C)c1cnn2c(NCc3ccccc3-c3ccccc3)nc(O[C@@H]3CCNC3)nc12 [(VII-08), (R)-N-([1,1′-biphenyl]-2-ylmethyl)-8-isopropyl-2-(pyrrolidin-3-yloxy)pyrazolo[1,5-a][1,3,5]triazin-4-amine]
18 | > 2500 | < 5 | > 2500 |  |  | CC(C)c1cnn2c(NCc3ccccc3-c3ccccc3)nc(OC3CCNCC3)nc12 [(VII-09), N-([1,1′-biphenyl]-2-ylmethyl)-8-isopropyl-2-(piperidin-4-yloxy)pyrazolo[1,5-a][1,3,5]triazin-4-amine]
19 | 50 to 500 | < 5 | < 50 |  |  | CC(C)c1cnn2c(NCc3ccccc3-c3cccs3)nc(O[C@@H]3CCCNC3)nc12 [(VII-12), (R)-8-isopropyl-2-(piperidin-3-yloxy)-N-(2-(thiophen-2-yl)benzyl)pyrazolo[1,5-a][1,3,5]triazin-4-amine]
20 |  | < 5 | 500 to 2500 |  |  | Cc1nccn1-c1ccccc1CNc1nc(O[C@@H]2CCCNC2)nc2c(C(C)C)cnn12 [(VII-23), (R)-8-isopropyl-N-(2-(2-methyl-1H-imidazol-1-yl)benzyl)-2-(piperidin-3-yloxy)pyrazolo[1,5-a][1,3,5]triazin-4-amine]
21 | > 2500 |  | > 2500 |  |  | CC(C)c1cnn2c(NCc3ccccc3C(F)(F)F)nc(OC3CCN(C)CC3)nc12 [VII-058, 8-isopropyl-2-((1-methylpiperidin-4-yl)oxy)-N-(2-(trifluoromethyl)benzyl)pyrazolo[1,5-a][1,3,5]triazin-4-amine]
22 | > 2500 |  | 500 to 2500 |  |  | CC(C)c1cnn2c(NCc3ccccc3-n3cccn3)nc(OC3CNC3)nc12 [VII-141, N-(2-(1H-pyrazol-1-yl)benzyl)-2-(azetidin-3-yloxy)-8-isopropylpyrazolo[1,5-a][1,3,5]triazin-4-amine]
